Key:
cells in culture = experiment: Cell penetration of polypeptide-streptavidin vectors coupled to enzymes; details: 2 hours of culture, complete culture medium
HSV-1 TK^+ virus = experiment: microbe, parasite or virus in culture; format: cell-based, Herpes Virus Simplex type I
HSV-1 TK^− virus = experiment: microbe, parasite or virus in culture; format: cell-based, Herpes Virus Simplex type I; details: for CPE inhibition (AI): HSV1 TK^−; for inhibition of the CPE effect, in words: HSV-1 TK^−
PV1/Sabin = format: cell-based, polio virus type 1; details: PV1/Sabin, peptide 25 μg/ml, day 5
PV1/Mahoney = format: cell-based, polio virus type 1; details: peptide 25 μg/ml, day 5
Vero cells = experiment: Toxicity reference: non infected treated Vero cells (Neutral Red OD); format: cell-based, monkey
Experimental: The CPE inhibition test is a semi-quantitative test which measures the % survival of the cells. The following protocol was followed: Vero cells were trypsinised (trypsin-versene, Eurobio), distributed in flat bottomed 96-well plates (Falcon) in an amount of […] per well, in 50 μl of DMEM medium (Bioproducts) supplemented with antibiotics, L-glutamine and 5% FCS (Eurobio), then incubated for 24 hours. The peptide/antibodies, sterilised on a […] filter, were added in an amount of […] using the following schedule: • H−24: cells into culture; • H−0: infection; • H−2, H−1, H0, H+1: add peptides; • H+48: CPE test.
48 hours after infection, the medium was removed and the wells were washed 3 times with 200 μl of sterile PBS buffer containing Ca^2+ and Mg^2+, so as to eliminate dead cells. Neutral Red (RAL, 0.3%) was added (100 μl/well) and the cells were incubated for 2 more hours. The cells were then washed 3 times as described above to eliminate colorant which had not been incorporated into the cells. The cells were then exploded by adding 100 μl of 1% SDS in distilled water. After 1 hour at 4° C. to completely leach out the Neutral Red, the crystals were dissolved with a pipette. Air bubbles were destroyed by a current of hot air (hair dryer) and the plates were read, using a microplate reader at 570 nm using a 630 nm reference filter. The optical density blank was air.
The following controls were used: • Reference cells: non infected and non treated, incubated with Neutral Red; • Reference virus: infected cells with different dilutions of a factor of 2 of virus, from 100% CPE (dilution 1/1) to 12.5% CPE (1/8 dilution); • Antiviral reference: cells treated with acyclovir and infected; and • Toxicity reference: non infected cells, treated with different peptides/antibodies.

[1] = Human alphaherpesvirus 1, Vero, read-out: CPE inhibition (antiviral activity)

**Q.** How did the “intracellular detection of the coupled enzymes” value (cells in culture) turn out when “streptavidin: control protein in native form” was run?
**A.** no intracellular coloration was observed

**Q.** For “(K)19-VAYISRGGGIFYYQDSIKGRFTREKYGKRGMDY (KKKKKKKKKKKKKKKKKKKVAYISRGGGIFYYQDSIKGRFTREKYGKRGMDY) [K19pJ20-8]”, which “CPE inhibition (AI)” value (HSV-1 TK^+ virus; HSV1 TK^+, added H0, 5 μ/well) is on record?
**A.** 37

**Q.** And the “CPE inhibition (AI)” value (HSV-1 TK^+ virus; HSV1 TK^+, added H0, 10 μ/well)?
**A.** 71

**Q.** What about the “CPE inhibition (AI)” value (HSV-1 TK^+ virus; HSV1 TK^+, added H0, 20 μ/well) of the same molecule?
**A.** 86

**Q.** What about the “CPE inhibition (AI)” value (HSV-1 TK^+ virus; HSV1 TK^+, added H + 1, 5 μ/well) of the same molecule?
**A.** 0

**Q.** What about the “CPE inhibition (AI)” value (HSV-1 TK^+ virus; HSV1 TK^+, added H + 1, 10 μ/well) of the same molecule?
**A.** 1

**Q.** What about the “CPE inhibition (AI)” value (HSV-1 TK^+ virus; HSV1 TK^+, added H + 1, 20 μ/well) of the same molecule?
**A.** 0

**Q.** What about the “CPE inhibition (AI)” value (HSV-1 TK^+ virus; HSV1 TK^+, added H − 1, 5 μ/well) of the same molecule?
**A.** 27

**Q.** What about the “CPE inhibition (AI)” value (HSV-1 TK^+ virus; HSV1 TK^+, added H − 1, 10 μ/well) of the same molecule?
**A.** 74

**Q.** What about the “CPE inhibition (AI)” value (HSV-1 TK^+ virus; HSV1 TK^+, added H − 1, 20 μ/well) of the same molecule?
**A.** 89

**Q.** And the “CPE inhibition (AI)” value (HSV-1 TK^+ virus; HSV1 TK^+, added H − 2, 5 μ/well)?
**A.** 1

**Q.** What about the “CPE inhibition (AI)” value (HSV-1 TK^+ virus; HSV1 TK^+, added H − 2, 10 μ/well) of the same molecule?
**A.** 44

**Q.** And the “CPE inhibition (AI)” value (HSV-1 TK^+ virus; HSV1 TK^+, added H − 2, 20 μ/well)?
**A.** 78

**Q.** What about the “inhibition of the CPE effect, in words” value (HSV-1 TK^+ virus; HSV-1 TK^+) of the same molecule?
**A.** very active against the two viral strains

**Q.** And the “CPE inhibition (AI)” value (HSV-1 TK^− virus; added H0, 5 μ/well)?
**A.** 38

**Q.** What about the “CPE inhibition (AI)” value (HSV-1 TK^− virus; added H0, 10 μ/well) of the same molecule?
**A.** 56

**Q.** What about the “CPE inhibition (AI)” value (HSV-1 TK^− virus; added H0, 20 μ/well) of the same molecule?
**A.** 86

**Q.** And the “CPE inhibition (AI)” value (HSV-1 TK^− virus; added H + 1, 5 μ/well)?
**A.** 1

**Q.** What about the “CPE inhibition (AI)” value (HSV-1 TK^− virus; added H + 1, 10 μ/well) of the same molecule?
**A.** 3

**Q.** What about the “CPE inhibition (AI)” value (HSV-1 TK^− virus; added H + 1, 20 μ/well) of the same molecule?
**A.** 11

**Q.** What about the “CPE inhibition (AI)” value (HSV-1 TK^− virus; added H − 1, 5 μ/well) of the same molecule?
**A.** 29

**Q.** What about the “CPE inhibition (AI)” value (HSV-1 TK^− virus; added H − 1, 10 μ/well) of the same molecule?
**A.** 49

**Q.** What about the “CPE inhibition (AI)” value (HSV-1 TK^− virus; added H − 1, 20 μ/well) of the same molecule?
**A.** 100

**Q.** What about the “CPE inhibition (AI)” value (HSV-1 TK^− virus; added H − 2, 5 μ/well) of the same molecule?
**A.** 55

**Q.** What about the “CPE inhibition (AI)” value (HSV-1 TK^− virus; added H − 2, 10 μ/well) of the same molecule?
**A.** 46

**Q.** And the “CPE inhibition (AI)” value (HSV-1 TK^− virus; added H − 2, 20 μ/well)?
**A.** 0

**Q.** What about the “inhibition of the CPE effect, in words” value (HSV-1 TK^− virus) of the same molecule?
**A.** very active against the two viral strains

**Q.** What about the “LOG (TITER/ML)” value (PV1/Sabin) of the same molecule?
**A.** 8.6

**Q.** What about the “TITER REDUCTION FACTOR” value (PV1/Sabin) of the same molecule?
**A.** 8

**Q.** And the “LOG (TITER/ML)” value (PV1/Mahoney)?
**A.** 8.9

**Q.** And the “TITER REDUCTION FACTOR” value (PV1/Mahoney)?
**A.** 6

**Q.** Which results are given for Nc1nc2c(ncn2COCCO)c(=O)[nH]1 [ACYCLOVIR ®, Acyclovir, reference compound]?
**A.** optical density, non infected cells (Vero cells; 10^−3 M /0, column HSV1 TK^+): 0.909 ± 0.016; optical density, non infected cells (Vero cells; 10^−3 M /0, column HSV1 TK^−): 0.789 ± 0.160; optical density, non infected cells (Vero cells; 10^−4 M /0, column HSV1 TK^+): 1.027 ± 0.042; optical density, non infected cells (Vero cells; 10^−4 M /0, column HSV1 TK^−): 0.834 ± 0.086; optical density, non infected cells (Vero cells; 10^−5 M /0, column HSV1 TK^+): 0.975 ± 0.093; optical density, non infected cells (Vero cells; 10^−5 M /0, column HSV1 TK^−): 0.869 ± 0.053; optical density, non infected cells (Vero cells; 10^−6 M /0, column HSV1 TK^+): 0.960 ± 0.025; optical density, non infected cells (Vero cells; 10^−6 M /0, column HSV1 TK^−): 0.816 ± 0.001; inhibition at 1000 µM (HSV-1 TK^+ virus; Human alphaherpesvirus 1, Vero, 10^−3 M, HSV1 TK^+, read-out: CPE inhibition (antiviral activity)): 62%; inhibition at 100 µM (HSV-1 TK^+ virus; Human alphaherpesvirus 1, Vero, 10^−4 M, HSV1 TK^+, read-out: CPE inhibition (antiviral activity)): 49%; inhibition at 10 µM (HSV-1 TK^+ virus; Human alphaherpesvirus 1, Vero, 10^−5 M, HSV1 TK^+, read-out: CPE inhibition (antiviral activity)): 7%; inhibition at 1 µM (HSV-1 TK^+ virus; Human alphaherpesvirus 1, Vero, 10^−6 M, HSV1 TK^+, read-out: CPE inhibition (antiviral activity)): 9%; inhibition of the CPE effect, in words (HSV-1 TK^− virus): no effect; inhibition at 1 µM (HSV-1 TK^− virus; [1]): 0%; inhibition at 10 µM (HSV-1 TK^− virus; [1]): 0%; inhibition at 100 µM (HSV-1 TK^− virus; [1]): 0%; inhibition at 1000 µM (HSV-1 TK^− virus; [1]): 0%

Source: patent publication US7628987B2, “Vectors derived from antibodies for transferring substances into cells” (Institut Pasteur, priority 1997, dated 2009)
